Experiments:
skin mast cells = format: in vivo, mice; conditions: for systemic effects of local (ear) treatment: mouse, in vivo
Experimental: Left ears were treated with DMSO and right ears with 0.2% MDD1 or 0.1% dexamethasone in DMSO twice daily for four days. Mice were then sensitised with anti DNP-20 ul IgE antibody administered to the ears by intradermal injection using an insulin syringe. Local mast cell activation was measured by dye recovery in response to FcεRI crosslink 24 hours post-injection: 100 μg DNP-albumin/1% Evans blue in PBS was injected intravenously and ear biopsies taken after 30 minutes were incubated at 80° C. in 1 ml formamide for 2 hours. The absorbance supernatant was measured at 620 nm.

[1] = Peptide solubility observation; format: physicochemical
OVA-sensitised mice [2] = experiment: OVA-induced asthma model, lung resistance after β-methacholine; format: in vivo, C57BL/6 mice; conditions: 6 hours prior to each OVA challenge, compared to control peptide
Experimental: (§1) C57BL/6 mice were sensitised with 10 ug ovalbumin antigen (OVA) in saline intraperitoneally seven times given on alternate days. 40 days after first sensitisation dose, mice were challenged with intranasal OVA (20 ul in each nostril of a solution of 5 mg/ml of OVA in saline). Mice received two additional challenges of intranasal OVA at days 3 and 6 after the first challenge with OVA. Control mice were sensitised with OVA, but challenged intranasally with saline. Groups of mice receiving parenteral MDD1 treatment were intravenously injected with 8 mg/Kg of MDD1 three times, 6 hours prior to each OVA challenge. Nebulised MDD1 or MDDscram (SCR) peptide was given 6 hours prior to each OVA challenge by nebulising 5 mice per cage with 8 ml of 1 mg/ml MDD1 or control peptide.
Functional lung studies and organ collection was performed one day after the final OVA challenge. Lung resistance was measured in anesthetized mice after increasing doses of β-methacholine. […] Lung resistance was measured by plethysmography, using an apparatus and software supplied by Buxco. Lung resistance values are expressed as an average of each group of mice for each methacholine dose. For each mouse, individual values were calculated by averaging collected data (every 5 seconds during 5 minutes) for each methacholine dose.

OVA-sensitised mice [3] = experiment: OVA-induced asthma model, inflammatory response (eosinophils, BAL cells, cytokine expression, serum IgE); format: in vivo, C57BL/6 mice
Experimental: as §1
Blood smears were prepared and the percentage of eosinophils was calculated by morphological criteria after May-Grünwald Giemsa-staining. Bronchoalveolar lavage (BAL) was recovered by lavaging airways twice with 1 ml HANKS solution via the tracheal cannula while gently massaging the thorax. Lung lower left lobe was collected and homogenised. Cells were filtered through a cell strainer and cell suspensions prepared in staining medium (PBS with 1% FCS). BAL and lung samples were incubated with anti-CD11b, anti-CCR3, anti-CD4 and antiB220 mab markers for flow cytometric analysis using a FACScan equipped with CellQuest software.
Lung upper right lobe was collected and homogenised on ice. Total RNA was prepared using Trizol (GIBCO, Invitrogen). Purity of the RNA was determined by A260/A280. 5 μg RNA for each sample was reverse transcribed into cDNA using Omniscript RT kit (Qiagen). Cytokine specific predesigned TaqMan gene expression assay (Applied Biosystems) were used to measure cytokine relative gene expression following the manufacturer's instructions (Applied Biosystems). Each experimental sample was assayed in three replicates. β-actin specific primers were used as an internal standard. Negative controls with blank cDNA template were run with every assay to assess specificity. The cycling conditions were as follows: one cycle at 95° C. for 10 minutes, followed by 40 cycles of PCR amplification, each consisting of 95° C. for 15 seconds and 60° C. for 45 seconds. Sequence Detection Software (SDS v 1.2.2, Applied Biosystems) was used for analysis of the results. A threshold cycle (Ct) was determined for each sample. PCR assays showing non-specific products at the end point were excluded from further data analysis. Relative quantification using comparative Ct method was used for analysing results. The results were expressed as relative fold change over the values for non-allergic mice.
OVA-specific IgE detection: 96-well maxisorp plates were coated overnight at 4° C. with anti-mouse IgE. 2% skim milk was used for unspecific binding blockade. Prediluted serum samples were incubated overnight, plates were loaded with OVA-biotin for 1.5 hours and a colometric reaction was developed using ABTS following manufacture's instructions. For OVA-specific IgG, 96-well maxisorp microtiter plates were pretreated with 0.2% glutaraldehyde and were coated with 10 μg/ml of OVA in 10 mM carbonate buffer (pH 9.6) for 3 hours at 37° C. Wells were blocked with 2% BSA in 10 mM carbonate buffer (pH 9.6) overnight at 4° C. in a humidified chamber. Serum samples were incubated at 37° C. for 1 hour. Peroxidase-conjugated […] followed by ABTS was used to develop the colorimetric reaction. Optical density was read in a microplate reader using a 405 nm filter. Levels of IgE and IgG were expressed as OD units.

RBL-2H3 cells [4] = experiment: MDD1 uptake by RBL-2H3 cells (FACS, streptavidin-APC); format: cell-based, rat; conditions: biotinylated MDD1 0.001, 0.01 and 0.1 mM overnight; intracellular FACS staining with streptavidin APC; FIG. 6
Experimental: RBL-2H3 cells were grown in F15 medium supplemented with 10% of fetal calf serum (FCS) and antibiotics. Cells were carefully detached from the culture flask with a cell scraper and plated at a concentration of 5×10^5 cells/well in a 96 well microtiter plate. Cells were incubated with various concentrations of biotinylated MDD1 (0.1, 0.01 and 0.001 mM) overnight. Biotinylated MDD1 uptake by live cells was detected using streptavidin-APC in single-cell suspensions previously treated with a combined cytofix/cytopenn fixation and penneabilization solution kit following manufacture's instructions (Becton Dickinson, BD). Cells were then analysed using a BD FACscan flow cytometer.

RBL-2H3 cells [5] = experiment: RBL-2H3 degranulation assay (β-hexosaminidase release); format: cell-based, rat; conditions: for degranulation upon IgE receptor crosslinking: peptide 0.01 mM pre-treatment overnight, IgE coating + DNP/albumin crosslinking, FIG. 7
Experimental: (§2) Mast cell degranulation was measured using the β-hexosaminidase release method. RBL-2H3 cells were grown in F15 medium supplemented with 10% of fetal calf serum (FCS) and antibiotics. Cells were carefully detached from the culture flask with a cell scraper and plated at a concentration of 5×10^5 cells/well in a 96 well microtiter plate and incubated in the presence of MDD1 or SCR peptide overnight. RBL-2H3 cells were then incubated with 500 ng/ml anti-DNP IgE mb (SIGMA) for 2 hours at 37° C. After washing, cells were stimulated with 100 ng/ml DNP/albumin for 30 minutes. For non IgE specific stimulation 1 nM Ionomycin only was added to the cultures for 30 minutes. Supernatants were then collected and cell lysates were prepared using 0.1% Triton X-100. Lysate and supernatant samples (10 μl) were transferred into 96-well plates and 50 μl mM 1 mM p-nitrophenyl-N-acetyl-β-D-glucopyranoside in 50 mM citrate buffer was added to each well and incubated for 1 hour at 37° C. in the dark. The reaction was stopped by adding 100 μl 0.1M NaHCO3/0.1M Na2CO3 into each well and the absorbance measured at 405 nm. Percentage degranulation was calculated by the following formula: OD supernatant/(OD supernatant+OD lysate)×100.
as §2, with “MPX741 peptide” for “MDD1”, “MPX742” for “SCR”, “(100)” for “(10 μl)”, “μl” for “μl mM”, “formula:” for “formula: OD supernatant/(OD supernatant+OD lysate)×100.”
OD supernatant/(OD supernatant+OD lysate)×100.

For `C[C@@H]1C[C@H]2[C@@H]3CCC4=CC(=O)C=C[C@]4(C)[C@@]3(F)[C@@H](O)C[C@]2(C)[C@@]1(O)C(=O)CO` [dexamethasone, reference compound], the “systemic effects of local (ear) treatment” value (skin mast cells) was “systemic immunosuppresion”.
With “Ac-PQDQGWNAEITLQMVQY-NH2 [MPX743, PQDQGWNAEITLQMVQY]” the solubility [1] was “poorly soluble”.
With Ac-RALYDNVPECAEELAFRKGD-NH2 [MDD1] the “Lung resistance (RL) following increasing doses of β-methacholine” value (OVA-sensitised mice [2]; intravenously 8 mg/kg, FIG. 8A) was “reduced”, the “Lung resistance (RL) following increasing doses of β-methacholine” value (OVA-sensitised mice [2]; nebulised intranasal route 1 mg/ml, FIG. 8B) was “reduced” and the “overall inflammatory response in the asthmatic reaction” value (OVA-sensitised mice [3]; OVA-sensitized mice, FIG. 9) was “reduced”. For the same compound, the eosinophilia in blood (OVA-sensitised mice [3]; allergic mice compared to control treated mice, FIG. 9A) was “decreased”, the “cellularity in broncho-alveolar lavages” value (OVA-sensitised mice [3]; allergic mice compared to control treated mice, FIG. 9B) was “decreased” and the “cytokine production in inflammatory foci (TNF expression)” value (OVA-sensitised mice [3]; allergic mice compared to control treated mice, FIG. 9C) was “decreased”. For the same compound, the “levels of antigen-specific IgE in serum” value (OVA-sensitised mice [3]; allergic mice compared to control treated mice, FIG. 9D) was “decreased”, the “comparison with dexamethasone treatment in the inflammatory parameters tested” value (OVA-sensitised mice [3]; dexamethasone 2 mg/kg i.p., some of the parameters, FIG. 9) was “outperformed dexamethasone treatment” and the “MDD1 peptide uptake by live cells” value (RBL-2H3 cells [4]) was “All cells were positive for MDD1 peptide and the levels were observed to increase with peptide concentration”. The “mast cell activation following IgE receptor crosslink, by dye extravasation” value (skin mast cells; 0.2% MDD1 peptide/DMSO topically to ear, twice daily for four days, compared to contralateral ears treated with DMSO only, FIG. 10) was “reduced levels of activation”, the “systemic effects of local (ear) treatment” value (skin mast cells) was “minimal systemic effects” and the “mast cell activation after non-specific stimulation” value (RBL-2H3 cells [5]; non IgE specific stimulation (ionomycin), data not shown) was “inhibit mast cell activation”. The “degranulation upon IgE receptor crosslinking” value (RBL-2H3 cells [5]) was “inhibit degranulation”.
With “EALPGEDCAFRKDANRLVEY (listed as Homo sapiens) [MDD1scram, control peptide, reference compound]” the “degranulation upon IgE receptor crosslinking” value (RBL-2H3 cells [5]) was “only a minor inhibitory effect”.
With “LEPPVKLKELHFSNMKTVD (listed as Homo sapiens) [MPX742]” the “degranulation following IgE receptor crosslink” value (RBL-2H3 cells [5]; MPX741, MPX742 0.01 mM pre-treatment, IgE coating + crosslinking, FIG. 11) was “significantly reduced degranulation”.

From patent publication US20100233199A1, “MODULATORS OF HYPERSENSITIVITY REACTIONS” (priority 2007, published 2010)
